Where two headings read alike, the source gives them in different places.
Key:
[1] = tested on: COLO 205 colorectal tumor cells; assay: Tumor cell viability inhibition assay (CellTiter-Glo 2.0, 72 hours); format: cell-based; conditions: COLO 205 cell viability
Summary of the method: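 COLO 205 cells (1500/well, RPMI-1640 + 10% FBS) exposed for 72 h to an 11-point, 4-fold dilution series; cellular ATP read by CellTiter-Glo 2.0 luminescence. Data normalized to DMSO and maximum-inhibition controls; IC50 from 4-parameter curve fit.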

[2] = tested on: cap-dependent translation in Flp-In-293 reporter cells; assay: Cellular cap-dependent translation inhibition assay (dual luciferase assay, DLA; Fluc/Rluc ratio, 24 hours); format: cell-based
[3] = target: T1, human eIF4E protein (Homo sapiens, UniProt P06730); assay: Biochemical competitive binding assay (TR-FRET competition, EDA-m7GDP-ATTO-647N probe); conditions: read-out: hEIF4E TR-FRET IC50
T1 construct: purchased Novus NBP-45314
Summary of the method: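 His-tagged human eIF4E (4 nM) was preincubated with Eu-anti-His antibody (2.5 nM) and added to compound (11-point, 4-fold dilutions) for 15 min. Then 5 nM EDA-m7GDP-ATTO-647N was added for 15 min, in HEPES pH 7.5, 100 mM KCl. The 665/620 TR-FRET ratio was normalized to controls, and IC50 was taken from 4-parameter fits.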

[4] = Homo sapiens, Flp-In-293, 24 h, dual luciferase assay, Flp-In-293 reporter cells, 24 hours, Fluc/Rluc ratio, read-out: DLA 205 IC50
[5] = dual luciferase assay, Flp-In-293 reporter cells, 24 hours, Fluc/Rluc ratio, read-out: DLA 205 IC50
[6] = Homo sapiens, Flp-In-293, 24 h, read-out: DLA 205 IC50, dual luciferase assay, Flp-In-293 reporter cells, 24 hours, Fluc/Rluc ratio

T1 sequence (P06730 whole entry): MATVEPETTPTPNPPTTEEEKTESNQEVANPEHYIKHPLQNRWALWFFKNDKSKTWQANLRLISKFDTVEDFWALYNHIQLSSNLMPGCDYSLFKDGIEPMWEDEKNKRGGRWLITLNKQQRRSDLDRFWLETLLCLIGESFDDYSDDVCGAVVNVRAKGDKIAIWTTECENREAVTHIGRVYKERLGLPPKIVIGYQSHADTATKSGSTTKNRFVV

SMILES	IC50 ([1]; Homo sapiens, COLO 205, 72 h)	IC50 [2, 4]	IC50 [3]	IC50 [1]	IC50 [2, 5]	IC50 ([1]; Homo sapiens)	IC50 [2, 6]
Cc1cc(-c2cc(Cl)ccc2OCCn2c(C)nc3c(c2=O)CC(N(C)CC2(C)COC2)CC3)c2scc(C(=O)O)c2n1 (single isomer, unassigned) [Compound 344]	< 5000 nM	< 1000 nM	< 100 nM				
Cc1cc(-c2cc(Cl)ccc2OCCn2c(C)nc3c(c2=O)CC(N(C)CC2(C)COC2)CC3)c2scc(C(=O)O)c2n1 (single isomer, unassigned) [Compound 345]			< 100 nM	5000 to 20000 nM	< 1000 nM		
Cc1cc(-c2cc(Cl)ccc2OCCn2c(C)nc3c(c2=O)C[C@H](N2CC[C@H](F)C2)CC3)c2scc(C(=O)NS(C)(=O)=O)c2n1 (single isomer, unassigned) [Compound 346]	< 5000 nM	< 1000 nM	< 100 nM				
Cc1cc(-c2cc(Cl)ccc2OCCn2c(C)nc3c(c2=O)C[C@@H](N2CC[C@H](F)C2)CC3)c2scc(C(=O)NS(C)(=O)=O)c2n1 (single isomer, unassigned) [Compound 347]	< 5000 nM	< 1000 nM	< 100 nM				
Cc1nc2c(c(=O)n1CC#Cc1ccc(Cl)cc1-c1ccnc3c(C(=O)NS(C)(=O)=O)csc13)C[C@H](N1CC[C@@H](F)C1)CC2 (single isomer, unassigned) [Compound 348]	< 5000 nM	< 1000 nM	< 100 nM				
Cc1nc2c(c(=O)n1CC#Cc1ccc(Cl)cc1-c1ccnc3c(C(=O)NS(C)(=O)=O)csc13)C[C@@H](N1CC[C@@H](F)C1)CC2 (single isomer, unassigned) [Compound 349]	< 5000 nM	< 1000 nM	< 100 nM				
Cc1cc(-c2cc(Cl)ccc2OCCn2c(C)nc3c(c2=O)CC(N(C)Cc2ccncc2)CC3)c2scc(C(=O)O)c2n1 (single isomer, unassigned) [Compound 354]			< 100 nM	< 5000 nM	< 1000 nM		
Cc1cc(-c2cc(Cl)ccc2OCCn2c(C)nc3c(c2=O)CC(N2CC4COCC4C2)CC3)c2scc(C(=O)NS(C)(=O)=O)c2n1 (single isomer, unassigned) [Compound 359]	< 5000 nM	< 1000 nM	< 100 nM				
CNC1CCc2nc(C)n(CCOc3ccc(Cl)cc3-c3cccc(C(=O)O)c3)c(=O)c2C1 (stereo not drawn) [Compound 2]			< 100 nM			< 5000 nM	> 5000 nM
Cc1cc(-c2cc(Cl)ccc2OCCn2c(C)nc3c(c2=O)CC(N2CCCC2)CC3)c2scc(C(=O)O)c2n1 (stereo not drawn) [Compound 4]			< 100 nM			5000 to 20000 nM	< 1000 nM
COC1CCc2nc(C)n(CCOc3ccc(Cl)cc3-c3cc(C)nc4c(C(=O)O)csc34)c(=O)c2C1 (stereo not drawn) [Compound 7]			100 to 500 nM			5000 to 20000 nM	1000 to 5000 nM
Cc1cc(-c2cc(Cl)ccc2OCCn2c(C)nc3c(c2=O)CC(N2CCC2)CC3)c2scc(C(=O)O)c2n1 (stereo not drawn) [Compound 8]			< 100 nM			5000 to 20000 nM	< 1000 nM
Cc1cc(-c2cc(Cl)ccc2OCCn2c(C)nc3c(c2=O)CC(N2CCOCC2)CC3)c2scc(C(=O)O)c2n1 (stereo not drawn) [Compound 9]			< 100 nM			< 5000 nM	< 1000 nM
Cc1cc(-c2cc(Cl)ccc2OCCn2c(C)nc3c(c2=O)CC(N2CCN(C)CC2)CC3)c2scc(C(=O)O)c2n1 (stereo not drawn) [Compound 10]			< 100 nM			5000 to 20000 nM	1000 to 5000 nM
COC1CCN(C2CCc3nc(C)n(CCOc4ccc(Cl)cc4-c4cc(C)nc5c(C(=O)O)csc45)c(=O)c3C2)CC1 (stereo not drawn) [Compound 12]	< 5000 nM	< 1000 nM	< 100 nM				
CC(=O)N(C)C1CCc2nc(C)n(CCOc3ccc(Cl)cc3-c3cccc(C(=O)O)c3)c(=O)c2C1 (stereo not drawn) [Compound 15]	> 20000 nM	> 5000 nM	500 to 5000 nM				
Cc1cc(-c2cc(Cl)ccc2OCCn2c(C)nc3c(c2=O)CC(N(C)Cc2ccncc2)CC3)c2scc(C(=O)O)c2n1 (stereo not drawn) [Compound 16]	< 5000 nM	< 1000 nM	< 100 nM				
Cc1cc(-c2cc(Cl)ccc2OCCn2c(C)nc3c(c2=O)CC(N2CC(N4CCOCC4)C2)CC3)c2scc(C(=O)O)c2n1 (stereo not drawn) [Compound 17]	5000 to 20000 nM	1000 to 5000 nM	< 100 nM				
Cc1cc(-c2cc(Cl)ccc2OCCn2c(C)nc3c(c2=O)CC(N2CC4COCC4C2)CC3)c2scc(C(=O)O)c2n1 (stereo not drawn) [Compound 19]	< 5000 nM	< 1000 nM	< 100 nM				

Source: patent US20240246918A1, “COMPOUNDS AND COMPOSITIONS AS EIF4E INHIBITORS AND THE USES THEREOF” (Ribometrix, Inc., priority 2022, published 2024)
